Assay results from PubChem BioAssay AID1963833 (Molecular Pharmacology Branch, DTP, NCI, 2024).

Tested on: 883617-216-R-J1-PDC complex spheroid viability
Test: Anticancer human tumor 883617-216-R-J1-PDC patient-derived bladder carcinoma cell line growth inhibition [POLQ]
Settings: for IC50: curve of first compound; for viability, T/C: stronger effect = lower value; active = viability on the fitted dose curve at most 10% of control; inactive = the rest
Outline: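 Growth inhibition in 3D: complex spheroids (tumor PDC, HUVEC, MSC) treated with POLQ inhibitor combinations; where Cmax unknown, highest tested concentration 10 microM, except SN-38 at 1 microM.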

[1] = second compound 0.0316 µM, first compound 0.0316 µM
[2] = second compound 0.0316 µM, first compound 0.1 µM
[3] = second compound 0.0316 µM, first compound 0.316 µM
[4] = second compound 0.0316 µM, first compound 1 µM
[5] = second compound 0.0316 µM, first compound 3.16 µM
[6] = second compound 0.0316 µM, first compound 10 µM
[7] = second compound 0.1 µM, first compound 0.0316 µM
[8] = second compound 0.1 µM, first compound 0.1 µM
[9] = second compound 0.1 µM, first compound 0.316 µM
[10] = second compound 0.1 µM, first compound 1 µM
[11] = second compound 0.1 µM, first compound 3.16 µM
[12] = second compound 0.1 µM, first compound 10 µM
[13] = second compound 0.316 µM, first compound 0.0316 µM
[14] = second compound 0.316 µM, first compound 0.1 µM
[15] = second compound 0.316 µM, first compound 0.316 µM
[16] = second compound 0.316 µM, first compound 1 µM
[17] = second compound 0.316 µM, first compound 3.16 µM
[18] = second compound 0.316 µM, first compound 10 µM
[19] = second compound 1 µM, first compound 0.0316 µM
[20] = second compound 1 µM, first compound 0.1 µM
[21] = second compound 1 µM, first compound 0.316 µM
[22] = second compound 1 µM, first compound 1 µM
[23] = second compound 1 µM, first compound 3.16 µM
[24] = second compound 1 µM, first compound 10 µM
[25] = second compound 3.16 µM, first compound 0.0316 µM
[26] = second compound 3.16 µM, first compound 0.1 µM
[27] = second compound 3.16 µM, first compound 0.316 µM
[28] = second compound 3.16 µM, first compound 1 µM
[29] = second compound 3.16 µM, first compound 3.16 µM
[30] = second compound 3.16 µM, first compound 10 µM
[31] = second compound 10 µM, first compound 0.0316 µM
[32] = second compound 10 µM, first compound 0.1 µM
[33] = second compound 10 µM, first compound 0.316 µM
[34] = second compound 10 µM, first compound 1 µM
[35] = second compound 10 µM, first compound 3.16 µM
[36] = second compound 10 µM, first compound 10 µM
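Note: spheroids exposed to compounds for seven days before readout.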
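Throughout, for viability, T/C: 100% = DMSO vehicle control viability.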

COc1cccc2c1C(=O)c1c(O)c3c(c(O)c1C2=O)CC(O)(C(=O)CO)CC3OC1CC(N)C(O)C(C)O1 (centres undefined) + Cc1cccc(N(C)C(=O)C2C(O)CCN2c2nc(C)cc(C(F)(F)F)c2C#N)c1
206 nM: IC50 (second compound 3.16 µM)
inactive: viability, T/C [1] 78% | viability, T/C [2] 60.8% | viability, T/C [3] 52.2% | viability, T/C [4] 9.43% | viability, T/C [7] 66.1% | viability, T/C [8] 67.9% | viability, T/C [9] 43.2% | viability, T/C [13] 74.3% | viability, T/C [14] 59.8% | viability, T/C [15] 45.4% | viability, T/C [19] 65.1% | viability, T/C [20] 57.5% | viability, T/C [21] 55.6% | viability, T/C [25] 66.8% | viability, T/C [26] 57.3% | viability, T/C [27] 43.7% | viability, T/C [31] 66% | viability, T/C [32] 58.1% | viability, T/C [33] 51.9%
311 nM: IC50 (second compound 0.0316 µM)
222 nM: IC50 (second compound 0.316 µM)
active: viability, T/C [5] 0.22% | viability, T/C [6] 0.21% | viability, T/C [10] 8.29% | viability, T/C [11] 0.32% | viability, T/C [12] 0.2% | viability, T/C [16] 6.2% | viability, T/C [17] 0.22% | viability, T/C [18] 0.2% | viability, T/C [22] 5.25% | viability, T/C [23] 0.22% | viability, T/C [24] 0.2% | viability, T/C [28] 3.99% | viability, T/C [29] 0.31% | viability, T/C [30] 0.29% | viability, T/C [34] 1.41% | viability, T/C [35] 0.35% | viability, T/C [36] 0.34%
359 nM: IC50 (second compound 1 µM)
228 nM: IC50 (second compound 0.1 µM)
330 nM: IC50 (second compound 10 µM)

O=c1[nH]cc(F)c(=O)[nH]1 + Cc1cccc(N(C)C(=O)C2C(O)CCN2c2nc(C)cc(C(F)(F)F)c2C#N)c1
> 10000 nM: IC50 (second compound 0.0316 µM) | IC50 (second compound 0.1 µM) | IC50 (second compound 0.316 µM) | IC50 (second compound 1 µM) | IC50 (second compound 3.16 µM) | IC50 (second compound 10 µM)
inactive: viability, T/C [1] 97% | viability, T/C [2] 104% | viability, T/C [3] 94.7% | viability, T/C [4] 89.7% | viability, T/C [5] 79.4% | viability, T/C [6] 57.8% | viability, T/C [7] 93.3% | viability, T/C [8] 97.2% | viability, T/C [9] 89.3% | viability, T/C [10] 102% | viability, T/C [11] 75.9% | viability, T/C [12] 62.3% | viability, T/C [13] 104% | viability, T/C [14] 107% | viability, T/C [15] 100% | viability, T/C [16] 109% | viability, T/C [17] 75.1% | viability, T/C [18] 64.8% | viability, T/C [19] 101% | viability, T/C [20] 105% | viability, T/C [21] 94.6% | viability, T/C [22] 88.2% | viability, T/C [23] 70.7% | viability, T/C [24] 66.4% | viability, T/C [25] 101% | viability, T/C [26] 90.1% | viability, T/C [27] 104% | viability, T/C [28] 85.6% | viability, T/C [29] 79.5% | viability, T/C [30] 65.7% | viability, T/C [31] 115% | viability, T/C [32] 102% | viability, T/C [33] 93.8% | viability, T/C [34] 89.9% | viability, T/C [35] 78.6% | viability, T/C [36] 74.6%
